Reference: patent publication US20100298141A1, “SUBSTITUTED PYRIDINE N-OXIDE HERBICIDES” (E. I. DU PONT DE NEMOURS AND COMPANY, priority 2007, published 2010)

Key:
Experiment in all cases: Test A pre-/postemergence greenhouse test
barnyardgrass = type: in vivo, Echinochloa crus-galli; details: for Plant response rating, Barnyardgrass: 0 to 100 scale where 0 is no effect and 100 is complete control; for Barnyardgrass plant response rating: 0 to 100 scale
Text: (§1) Seeds of barnyardgrass (Echinochloa crus-galli), crabgrass (Digitaria sanguinalis), giant foxtail (Setaria faberi), morningglory (Ipomoea spp.), redroot pigweed (Amaranthus retroflexus), velvetleaf (Abutilon theophrasti), wheat (Triticum aestivum), and corn (Zea mays) were planted into a blend of loam soil and sand and treated preemergence with a directed soil spray using test compounds formulated in a non-phytotoxic solvent mixture which included a surfactant. At the same time these species were also treated with postemergence applications of test compounds formulated in the same manner. Plants ranged in height from two to ten cm and were in the one- to two-leaf stage for the postemergence treatment. Treated plants and untreated controls were maintained in a greenhouse for approximately ten days, after which time all treated plants were compared to untreated controls and visually evaluated for injury. […] A dash (-) response means no test results.

corn = type: in vivo, Zea mays; details: for Plant response rating, Corn: 0 to 100 scale where 0 is no effect and 100 is complete control; for Corn plant response rating: 0 to 100 scale
Text: as §1

redroot pigweed = type: in vivo, Amaranthus retroflexus; details: for Plant response rating, Pigweed: 0 to 100 scale where 0 is no effect and 100 is complete control; for Pigweed plant response rating: 0 to 100 scale
Text: as §1

giant foxtail = type: in vivo, Setaria faberi; details: for Plant response rating, Foxtail, Giant: 0 to 100 scale where 0 is no effect and 100 is complete control; for Foxtail, Giant plant response rating: 0 to 100 scale
Text: as §1

crabgrass = type: in vivo, Digitaria sanguinalis; details: for Plant response rating, Crabgrass, Large: 0 to 100 scale where 0 is no effect and 100 is complete control; for Crabgrass, Large plant response rating: 0 to 100 scale
Text: as §1

morningglory = type: in vivo, Ipomoea spp.; details: for Plant response rating, Morningglory: 0 to 100 scale where 0 is no effect and 100 is complete control; for Morningglory plant response rating: 0 to 100 scale
Text: as §1

velvetleaf = type: in vivo, Abutilon theophrasti; details: for Plant response rating, Velvetleaf: 0 to 100 scale where 0 is no effect and 100 is complete control; for Velvetleaf plant response rating: 0 to 100 scale
Text: as §1

wheat = type: in vivo, Triticum aestivum; details: for Plant response rating, Wheat: 0 to 100 scale where 0 is no effect and 100 is complete control; for Wheat plant response rating: 0 to 100 scale
Text: as §1

[1] = Postemergence, 500 g ai/ha, 0 is no effect, 100 is complete control
[2] = Preemergence, 125 g ai/ha, 0 no effect, 100 complete control
[3] = Preemergence, 500 g ai/ha, 0 no effect, 100 complete control

## Cn1nc(C(F)(F)F)c(C[S+]([O-])c2cc(C3CC3)cc[n+]2[O-])c1OC(F)F (stereo not drawn) [Compound 120]
barnyardgrass; Postemergence, 125 g ai/ha
  Plant response rating, Barnyardgrass: 60
barnyardgrass; [1]
  Barnyardgrass plant response rating: 70
barnyardgrass; [2]
  Barnyardgrass plant response rating: 80
barnyardgrass; [3]
  Barnyardgrass plant response rating: 100
corn; Postemergence, 125 g ai/ha
  Plant response rating, Corn: 30
corn; [1]
  Corn plant response rating: 70
corn; [2]
  Corn plant response rating: 80
corn; [3]
  Corn plant response rating: 90
Redroot pigweed; Postemergence, 125 g ai/ha
  Plant response rating, Pigweed: 60
Redroot pigweed; [1]
  Pigweed plant response rating: 80
Redroot pigweed; [2]
  Pigweed plant response rating: 100
Redroot pigweed; [3]
  Pigweed plant response rating: 100
Giant foxtail; Postemergence, 125 g ai/ha
  Plant response rating, Foxtail, Giant: 80
Giant foxtail; [1]
  Foxtail, Giant plant response rating: 90
Giant foxtail; [2]
  Foxtail, Giant plant response rating: 100
Giant foxtail; [3]
  Foxtail, Giant plant response rating: 100
crabgrass; Postemergence, 125 g ai/ha
  Plant response rating, Crabgrass, Large: 50
crabgrass; [1]
  Crabgrass, Large plant response rating: 80
crabgrass; [2]
  Crabgrass, Large plant response rating: 90
crabgrass; [3]
  Crabgrass, Large plant response rating: 90
morningglory; Postemergence, 125 g ai/ha
  Plant response rating, Morningglory: 50
morningglory; [1]
  Morningglory plant response rating: 80
morningglory; [2]
  Morningglory plant response rating: 80
morningglory; [3]
  Morningglory plant response rating: 90
velvetleaf; Postemergence, 125 g ai/ha
  Plant response rating, Velvetleaf: 60
velvetleaf; [1]
  Velvetleaf plant response rating: 80
velvetleaf; [2]
  Velvetleaf plant response rating: 60
velvetleaf; [3]
  Velvetleaf plant response rating: 80
wheat; Postemergence, 125 g ai/ha
  Plant response rating, Wheat: 40
wheat; [1]
  Wheat plant response rating: 50
wheat; [2]
  Wheat plant response rating: 50
wheat; [3]
  Wheat plant response rating: 100

## CC(C)c1cc[n+]([O-])c(S(=O)(=O)Cc2c(C(F)(F)F)nn(C)c2OCC(F)(F)F)c1 [Compound 111, 4-(1-methylethyl)-2-[[[1-methyl-5-(2,2,2-trifluoroethoxy)-3-trifluoromethyl-1H-pyrazol-4-yl]methyl]sulfonyl]pyridine 1-oxide]
barnyardgrass; Postemergence, 125 g ai/ha
  Plant response rating, Barnyardgrass: 50
barnyardgrass; [1]
  Barnyardgrass plant response rating: 70
barnyardgrass; [2]
  Barnyardgrass plant response rating: 80
barnyardgrass; [3]
  Barnyardgrass plant response rating: 100
corn; Postemergence, 125 g ai/ha
  Plant response rating, Corn: 0
corn; [1]
  Corn plant response rating: 40
corn; [2]
  Corn plant response rating: 0
corn; [3]
  Corn plant response rating: 50
Redroot pigweed; Postemergence, 125 g ai/ha
  Plant response rating, Pigweed: 60
Redroot pigweed; [1]
  Pigweed plant response rating: 60
Redroot pigweed; [2]
  Pigweed plant response rating: 50
Redroot pigweed; [3]
  Pigweed plant response rating: 100
Giant foxtail; Postemergence, 125 g ai/ha
  Plant response rating, Foxtail, Giant: 60
Giant foxtail; [1]
  Foxtail, Giant plant response rating: 80
Giant foxtail; [2]
  Foxtail, Giant plant response rating: 90
Giant foxtail; [3]
  Foxtail, Giant plant response rating: 100
crabgrass; Postemergence, 125 g ai/ha
  Plant response rating, Crabgrass, Large: 40
crabgrass; [1]
  Crabgrass, Large plant response rating: 70
crabgrass; [2]
  Crabgrass, Large plant response rating: 60
crabgrass; [3]
  Crabgrass, Large plant response rating: 90
morningglory; Postemergence, 125 g ai/ha
  Plant response rating, Morningglory: 20
morningglory; [1]
  Morningglory plant response rating: 60
morningglory; [2]
  Morningglory plant response rating: 80
morningglory; [3]
  Morningglory plant response rating: 100
velvetleaf; Postemergence, 125 g ai/ha
  Plant response rating, Velvetleaf: 50
velvetleaf; [1]
  Velvetleaf plant response rating: 60
velvetleaf; [2]
  Velvetleaf plant response rating: 60
velvetleaf; [3]
  Velvetleaf plant response rating: 100
wheat; Postemergence, 125 g ai/ha
  Plant response rating, Wheat: 50
wheat; [1]
  Wheat plant response rating: 60
wheat; [2]
  Wheat plant response rating: 50
wheat; [3]
  Wheat plant response rating: 80

## Cn1nc(C(F)(F)F)c(CS(=O)(=O)c2cc(C3CC3)cc[n+]2[O-])c1OC(F)F [Compound 118]
barnyardgrass; Postemergence, 125 g ai/ha
  Plant response rating, Barnyardgrass: 50
barnyardgrass; [1]
  Barnyardgrass plant response rating: 70
barnyardgrass; [2]
  Barnyardgrass plant response rating: 70
barnyardgrass; [3]
  Barnyardgrass plant response rating: 100
corn; Postemergence, 125 g ai/ha
  Plant response rating, Corn: 0
corn; [1]
  Corn plant response rating: 0
corn; [2]
  Corn plant response rating: 0
corn; [3]
  Corn plant response rating: 20
Redroot pigweed; Postemergence, 125 g ai/ha
  Plant response rating, Pigweed: 50
Redroot pigweed; [1]
  Pigweed plant response rating: 80
Redroot pigweed; [2]
  Pigweed plant response rating: 100
Redroot pigweed; [3]
  Pigweed plant response rating: 100
Giant foxtail; Postemergence, 125 g ai/ha
  Plant response rating, Foxtail, Giant: 40
Giant foxtail; [1]
  Foxtail, Giant plant response rating: 80
Giant foxtail; [2]
  Foxtail, Giant plant response rating: 90
Giant foxtail; [3]
  Foxtail, Giant plant response rating: 100
crabgrass; Postemergence, 125 g ai/ha
  Plant response rating, Crabgrass, Large: 40
crabgrass; [1]
  Crabgrass, Large plant response rating: 80
crabgrass; [2]
  Crabgrass, Large plant response rating: 90
crabgrass; [3]
  Crabgrass, Large plant response rating: 100
morningglory; Postemergence, 125 g ai/ha
  Plant response rating, Morningglory: 20
morningglory; [1]
  Morningglory plant response rating: 60
morningglory; [2]
  Morningglory plant response rating: 40
morningglory; [3]
  Morningglory plant response rating: 100
velvetleaf; Postemergence, 125 g ai/ha
  Plant response rating, Velvetleaf: 40
velvetleaf; [1]
  Velvetleaf plant response rating: 60
velvetleaf; [2]
  Velvetleaf plant response rating: 20
velvetleaf; [3]
  Velvetleaf plant response rating: 90
wheat; Postemergence, 125 g ai/ha
  Plant response rating, Wheat: 40
wheat; [1]
  Wheat plant response rating: 60
wheat; [2]
  Wheat plant response rating: 40
wheat; [3]
  Wheat plant response rating: 60
